Results: publication PMC6022226, “Novel coumarin-6-sulfonamides as apoptotic anti-proliferative agents: synthesis, in vitro biological evaluation, and QSAR studies” (Journal of Enzyme Inhibition and Medicinal Chemistry, 2018)
Like-named read-outs stand apart in the source and are kept apart here.

Tests used:
Caco-2 colon cancer = test: In vitro anti-proliferative activity, SRB assay, Caco-2; format: cell-based, human; conditions: Homo sapiens, Caco-2
Method: (§1) HepG2 liver cancer, MCF-7 breast cancer and Caco-2 cancer cell lines were obtained from the National Cancer Institute (Cairo, Egypt). Caco-2 cells were grown in DMEM while HepG2 and MCF-7 were grown in RPMI-1640. Media were supplemented with 10% heat-inactivated FBS, 50 units/mL of penicillin and 50 µg/mL of streptomycin and maintained at 37 °C in a humidified atmosphere containing 5% CO2. The cells were maintained as a “monolayer culture” by serial subculturing. Cytotoxicity was determined using the sulforhodamine B (SRB) method as previously described by Skehan et al.[50] Exponentially growing cells were collected using 0.25% trypsin-EDTA and seeded in 96-well plates at 1000–2000 cells/well in supplemented DMEM medium. After 24 h, cells were incubated for 72 h with various concentrations of the tested compounds as well as doxorubicin as the reference compound. Following 72 h of treatment, the cells were fixed with 10% trichloroacetic acid for 1 h at 4 °C. Wells were stained for 10 min at room temperature with 0.4% SRB dissolved in 1% acetic acid. The plates were air dried for 24 h, and the dye was solubilized with Tris–HCl for 5 min on a shaker at 1600 rpm. The optical density (OD) of each well was measured spectrophotometrically at 564 nm with an ELISA microplate reader (ChroMate-4300, FL, USA). The IC50 values were calculated according to the equation for Boltzmann sigmoidal concentrationeresponse curve using the nonlinear regression models (GraphPad, Prism Version 5). The results reported are means of at least three separate experiments. Significant differences were analyzed by one-way ANOVA wherein the differences were considered to be significant at p < .05.
(§2) All the newly synthesized target coumarin sulfonamides were evaluated for their in vitro anti-proliferative activity against three human tumor cancer cell lines, HepG2 hepatocellular carcinoma, MCF-7 breast cancer, and Caco-2 colon cancer, using SRB colorimetric assay as described by Skehan et al.^50 Doxorubicin was involved in the experiments as a reference cytotoxic compound.

[1] = tested on: HepG2 hepatocellular carcinoma; test: In vitro anti-proliferative activity, SRB assay, HepG2; format: cell-based, human; conditions: for IC50: Homo sapiens
Method: as §1, §2

caspase-3 = test: ELISA immunoassay, active caspase-3 level in HepG2 cells; format: cell-based, human; conditions: HepG2 cells treated at IC50 concentration
Description: (§3) The levels of the apoptotic markers (Bax, caspase-3) and the anti-apoptotic marker (Bcl-2) were examined using ELISA colorimetric kits per the manufacturer’s protocol and referring to reported instructions[51] ^, [52].
As a key executioner protease, caspase-3 is activated by upstream initiator caspases as caspase-9.

HepG2 cells [2] = test: Cell cycle analysis by DNA flow cytometry (PI); format: cell-based, human; conditions: HepG2, 24 h, at IC50 concentration
Method: Subsequently, the treated cells were collected by centrifugation, fixed in ice-cold 70% (v/v) ethanol, washed with PBS, re-suspended with 0.1 mg/mL RNase, stained with […] PI, and analyzed by flow cytometry using FACS Calibur (Becton Dickinson, BD). The cell cycle distributions were calculated using CellQuest software (Becton Dickinson)[53].
The impact of compound 13a on cell cycle progression was examined in HepG2 cancer cell line after 24 h of treatment (Figure 2). This impact was illustrated by DNA flow cytometric analysis where HepG2 cells were treated with 13a at concentration equals to its IC50. […] Alteration of the Pre-G1 phase and arrest of G2-M phase were significant remarks for compound 13a to induce apoptosis in HepG2 cells.

[3] = tested on: non-tumorigenic human normal lung fibroblast cell line (WI-38); test: In vitro cytotoxicity towards normal WI-38 cells; format: cell-based
Bcl-2 = test: ELISA immunoassay, Bcl-2 expression level in HepG2 cells; format: cell-based, human; conditions: HepG2 cells treated at IC50 concentration
Description: as §3
(§4) The Bcl-2 proteins family is mainly responsible for synchronizing the mitochondrial apoptotic pathway, and classified into two major classes: anti-apoptotic proteins such as Bcl-2 protein and the counteracting pro-apoptotic proteins including Bax protein. In this study, we examined the impact of coumarins 13a and 15a on the level of the anti-apoptotic Bcl2 and the level of the pro-apoptotic Bax (Table 3).

Bax = test: ELISA immunoassay, Bax expression level in HepG2 cells; format: cell-based, human; conditions: HepG2 cells treated at IC50 concentration
Description: as §3, §4

HepG2 cells [4] = test: Annexin V-FITC/PI apoptosis assay; format: cell-based, human; conditions: HepG2, 24 h
Method: Phosphatidylserine externalization was measured using Annexin V-FITC/PI apoptosis detection kit (BD Biosciences, San Jose, CA) according to the manufacturer's instructions, as reported earlier. HepG2 cells were treated with 13a at defined concentrations for 24 h.
The apoptotic effect of coumarin 13a was further assured by Annexin V-FITC/PI (AV/PI) dual staining assay to investigate the occurrence of phosphatidylserine externalization (Figure 3).

MCF-7 breast cancer = test: In vitro anti-proliferative activity, SRB assay, MCF-7; format: cell-based, human; conditions: Homo sapiens, MCF7, 72 h incubation, mean ± SE of three experiments
Method: as §1, §2

## CC(=NNc1nc(-c2ccccc2)cs1)c1ccc(NS(=O)(=O)c2ccc3oc(=O)ccc3c2)cc1 [Compound 13a, 2-Oxo-N-(4–(1-(2–(4-phenylthiazol-2-yl)hydrazono)ethyl)phenyl)-2H-chromene-6-sulfonamide]
Caco-2 colon cancer; 72 h incubation, SRB, mean ± SE of three experiments, read-out: IC50 Caco-2
  IC50: 83.4 ± 7.04 µM
Caco-2 colon cancer; training set, Table 4, -log IC50 (IC50 in µM), read-out: Caco-2 Experimental activity (pIC50) (converted)
  IC50: 83.4 µM
[1]; HepG2 IC50 ratio
  fold increased potency than doxorubicin: 1.5 fold
[1]; HepG2, 72 h, 72 h incubation, SRB, mean ± SE of three experiments, read-out: IC50 HepG2
  IC50: 3.48 ± 0.28 µM
[1]; HepG2, training set, Table 4, -log IC50 (IC50 in µM), read-out: HepG2 Experimental activity (pIC50) (converted)
  IC50: 3.48 µM
caspase-3
  Caspase-3 (active caspase-3 level): 0.3021 ng/mg protein
HepG2 cells [2]
  arrest in G2-M phase compared to control: 5.4 folds
  increase in percentage of cells at Pre-G1 compared to control: 6.4 folds
[3]; Homo sapiens, WI-38, normal lung fibroblasts
  IC50: 73.2 ± 3.47 µM
[3]; WI-38 versus HepG2
  Selectivity index: 21
Bcl-2
  Bcl-2, folds of control: 0.21 folds
  Bcl-2 expression level: 1.51 ng/mg protein
  Bcl-2 level, % of control: 21.4%
Bax
  Bax expression level: 453.3 Pg/mg protein
  Bax, folds of control: 16.5 folds
HepG2 cells [4]
  annexin V-FITC positive apoptotic cells, folds compared to control: about 7.9 folds
HepG2 cells [4]; control 1.75%
  annexin V-FITC positive apoptotic cells (UR + LR): 13.76%
MCF-7 breast cancer
  IC50: 83.2 ± 6.85 µM
